Molecular target: T1, Human HPK1, catalytic domain (Homo sapiens, UniProt Q92918)
T1 sequence (Q92918 1-346): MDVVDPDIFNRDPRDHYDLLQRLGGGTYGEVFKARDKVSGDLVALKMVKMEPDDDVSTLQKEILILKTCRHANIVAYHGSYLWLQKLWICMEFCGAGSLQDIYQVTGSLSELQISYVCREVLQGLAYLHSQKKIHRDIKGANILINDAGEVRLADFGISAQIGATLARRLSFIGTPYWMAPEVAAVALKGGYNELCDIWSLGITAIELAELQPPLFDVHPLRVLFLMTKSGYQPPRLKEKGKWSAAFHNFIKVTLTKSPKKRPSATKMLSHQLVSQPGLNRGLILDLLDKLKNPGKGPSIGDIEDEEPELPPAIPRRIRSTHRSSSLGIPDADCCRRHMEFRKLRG
Experiment: HPK1-SLP76 TR-FRET Assay
Format: biochemical
Details: 75 pM HPK1, ATP 10 uM, SLP76 10 nM, 30 min pre-incubation, 60 min reaction

`COc1cc2c(cc1Nc1ncc3ccc(-c4ccccc4-c4nnc(C)o4)cc3n1)CN(C)CC2` [Compound 1-110, N-(6-methoxy-2-methyl-1,2,3,4-tetrahydroisoquinolin-7-yl)-7-[2-(5-methyl-1,3,4-oxadiazol-2-yl)phenyl]quinazolin-2-amine] showed an IC50 of 302 nM.
Compound `Cc1c(-c2c(F)c(N)c3cnc(Nc4ccc5c(c4)CN(C(C)C)CC5)nc3c2Cl)cnc2c1NCCO2` (single isomer, unassigned) [Compound 2-113, 8-chloro-6-fluoro-N2-(2-isopropyl-1,2,3,4-tetrahydroisoquinolin-7-yl)-7-(8-methyl-2,3-dihydro-1H-pyrido[2,3-b][1,4]oxazin-7-yl)quinazoline-2,5-diamine] has an IC50 of 0.0389 nM.
`CNC(=O)C(C)(C)c1ccc(Nc2ncc3c(N)c(F)c(-c4cnc5c(c4C)NCCO5)cc3n2)cc1` [Compound 2-187, 2-(4-{[5-amino-6-fluoro-7-(8-methyl-2,3-dihydro-1H-pyrido[2,3-b][1,4]oxazin-7-yl)quinazolin-2-yl]amino}phenyl)-N,2-dimethylpropanamide] showed an IC50 of 0.0812 nM.
In the case of `COc1cc2c(cc1Nc1ncc3c(N)c(F)c(-c4cnc5c(c4C)NCCO5)cc3n1)CNCC2` [Compound 2-4, 6-fluoro-N~2~-(6-methoxy-1,2,3,4-tetrahydroisoquinolin-7-yl)-7-(8-methyl-2,3-dihydro-1H-pyrido[2,3-b][1,4]oxazin-7-yl)quinazoline-2,5-diamine], the IC50 is reported as 0.979 nM.
Compound `CCN(CC)S(=O)(=O)c1cccc(-c2ccc3cnc(Nc4cc5c(cc4OC)CCNC5)nc3c2)c1` [Compound 1-80, N,N-diethyl-3-{2-[(6-methoxy-1,2,3,4-tetrahydroisoquinolin-7-yl)amino]quinazolin-7-yl}benzene-1-sulfonamide] has an IC50 of 23.9 nM.
Compound `COc1cc2c(cc1Nc1ncc3ccc(-c4ccccc4N4CCOC4=O)cc3n1)CN(C)CC2` [Compound 1-10, 3-(2-{2-[(6-methoxy-2-methyl-1,2,3,4-tetrahydroisoquinolin-7-yl)amino]quinazolin-7-yl}phenyl)-1,3-oxazolidin-2-one] has an IC50 of 27 nM.
With `Cc1c(-c2cc3nc(Nc4ccc5c(c4)CN(C)CC5)ncc3c(N)c2F)cnc2nc[nH]c12` [Compound 2-162, 6-fluoro-7-(7-methyl-1H-imidazo[4,5-b]pyridin-6-yl)-N~2~-(2-methyl-1,2,3,4-tetrahydroisoquinolin-7-yl)quinazoline-2,5-diamine] the IC50 was 0.126 nM.
`CCn1cc(-c2ccc3cnc(Nc4cc5c(cc4OC)CCN(C)C5)nc3c2)cn1` [Compound 1-20, 7-(1-ethyl-1H-pyrazol-4-yl)-N-(6-methoxy-2-methyl-1,2,3,4-tetrahydroisoquinolin-7-yl)quinazolin-2-amine] gave an IC50 of 4.61 nM.
`CNC(=O)C1(c2ccc(Nc3ncc4c(N)c(F)c(-c5cnc6c(c5C)NCCO6)cc4n3)cc2)CCCCC1` [Compound 2-80, 1-(4-((5-amino-6-fluoro-7-(8-methyl-2,3-dihydro-1H-pyrido[2,3-b][1,4]oxazin-7-yl)quinazolin-2-yl)amino)phenyl)-N-methylcyclohexane-1-carboxamide] showed an IC50 of 0.0728 nM.
`COc1cc2c(cc1Nc1ncc3ccc(Nc4nccc(CO)n4)cc3n1)CN(C)CC2` [Compound 3-35, [2-({2-[(6-methoxy-2-methyl-1,2,3,4-tetrahydroisoquinolin-7-yl)amino]quinazolin-7-yl}-amino)pyrimidin-4-yl]methanol] gave an IC50 of 1.67 nM.
`COc1cc2c(cc1Nc1ncc3ccc(N4CC(CO)OC4=O)cc3n1)CN(C)CC2` (racemic) [Compound 3-4, (S and R)-5-(hydroxymethyl)-3-{2-[(6-methoxy-2-methyl-1,2,3,4-tetrahydroisoquinolin-7-yl)amino]quinazolin-7-yl}-1,3-oxazolidin-2-one] was tested, and the IC50 was 9.36 nM.
`COc1cc2c(cc1Nc1ncc3ccc(Nc4ccc(C)c(S(N)(=O)=O)c4)cc3n1)CN(C)CC2` [Compound 3-44, 5-({2-[(6-methoxy-2-methyl-1,2,3,4-tetrahydroisoquinolin-7-yl)amino]quinazolin-7-yl}-amino)-2-methylbenzene-1-sulfonamide] gave an IC50 of 13 nM.
`COc1nc(C2(C#N)CC2)ccc1Nc1ncc2c(N)c(F)c(-c3cnc4c(c3C)NCCO4)c(Cl)c2n1` [Compound 2-181, (+ or −)-1-(5-{[5-amino-8-chloro-6-fluoro-7-(8-methyl-2,3-dihydro-1H-pyrido[2,3-b][1,4]oxazin-7-yl)quinazolin-2-ylamino}-6-methoxypyridin-2-yl)cyclopropane-1-carbonitrile] showed an IC50 of 100 nM.
In the case of `COc1cc2c(cc1Nc1ncc3c(N)c(F)c(-c4cnc5c(c4C)NCCO5)c(Cl)c3n1)CN(C)CC21CC1` (single isomer, unassigned) [Compound 2-163, 8-chloro-6-fluoro-N~2~- (6′-methoxy-2′-methyl-2′,3′-dihydro-1′H-spiro[cyclopropane-1,4′-isoquinolin]-7′-yl)-7-(8-methyl-2,3-dihydro-1H-pyrido[2,3-b][1,4]oxazin-7-yl)quinazoline-2,5-diamine], the IC50 is reported as 0.0588 nM.
Compound `Cc1c(-c2cc3nc(Nc4ccc(CS(=O)(=O)C5CC5)cc4)ncc3c(N)c2F)cnc2c1NCCO2` [Compound 2-136] has an IC50 of 0.101 nM.
Compound `COc1cc2c(cc1Nc1ncc3c(N)cc(N4C(=O)OC[C@@H]4C)cc3n1)CN(C)CC2` [Compound 3-17, (S)-3-{5-amino-2-[(6-methoxy-2-methyl-1,2,3,4-tetrahydroiso-quinolin-7-yl)amino]quinazolin-7-yl}-4-methyl-1,3-oxazolidin-2-one] has an IC50 of 0.0757 nM.
`COc1cc2c(cc1Nc1ncc3ccc(-n4nc(C)nc4C4CCCN4)cc3n1)CN(C)CC2` (racemic) [Compound 3-19, (S and R)-N-(6-methoxy-2-meth-yl-1,2,3,4-tetrahydroisoquinolin-7-yl)-7-[3-methyl-5-(pyrrolidin-2-yl)-1H-1,2,4-triazol-1-yl]quin-azolin-2-amine] gave an IC50 of 638 nM.
`COc1cc2c(cc1Nc1ncc3ccc(-c4cccc(C(C)=O)c4)cc3n1)CNCC2` [Compound 1-66, 1-(3-{2-[(6-methoxy-1,2,3,4-tetrahydroisoquinolin-7-yl)amino]quinazolin-7-yl}phenyl)ethan-1-one] showed an IC50 of 130 nM.
`COc1cc(C2CC2)ccc1Nc1ncc2c(N)c(F)c(-c3cnc4c(c3C)NCCO4)cc2n1` [Compound 2-176, N~2~-(4-cyclopropyl-2-methoxyphenyl)-6-fluoro-7-(8-methyl-2,3-dihydro-1H-pyrido[2,3-b][1,4]oxazin-7-yl)quinazoline-2,5-diamine] gave an IC50 of 17.2 nM.
Compound `Cc1c(-c2cc3nc(Nc4ccc(S(C)(=O)=O)cc4)ncc3c(N)c2F)cnc2c1NCCO2` [Compound 2-17, 6-fluoro-7-(8-methyl-2,3-dihydro-1H-pyrido[2,3-b][1,4]oxazin-7-yl)-N~2~- [4-(methylsulfonyl)phenyl] quinazoline-2,5-diamine] has an IC50 of 0.0851 nM.
`COc1cc2c(cc1Nc1ncc3ccc(-c4cccnc4)cc3n1)CNCC2` [Compound 1-40, N-(6-methoxy-1,2,3,4-tetrahydroisoquinolin-7-yl)-7-(pyridin-3-yl)quinazolin-2-amine] showed an IC50 of 8.94 nM.
Work on `COc1cc2c(cc1Nc1ncc3ccc(Oc4ccc([C@H](C)N)cc4)cc3n1)CN(C)CC2` [Compound 4-8, 7-{4-[(1S)-1-aminoethyl]-phenoxy}-N-(6-methoxy-2-methyl-1,2,3,4-tetrahydro-isoquinolin-7-yl)quinazolin-2-amine] yielded an IC50 of 2.37 nM.
For `COc1cc2c(cc1Nc1ncc3ccc(-c4cnn(C(F)F)c4)cc3n1)CN(C)CC2` [Compound 1-26, 7-[1-(difluoromethyl)-1H-pyrazol-4-yl]-N-(6-methoxy-2-methyl-1,2,3,4-tetrahydroisoquinolin-7-yl)quinazolin-2-amine], the IC50 was 10.8 nM.
Compound `COc1cc2c(cc1Nc1ncc3ccc(-c4ccc(C#N)nc4)cc3n1)CN(C)CC2` [Compound 1-103, 5-{2-[(6-methoxy-2-methyl-1,2,3,4-tetrahydroisoquinolin-7-yl)amino]quinazolin-7-yl}pyridine-2-carbonitrile] has an IC50 of 328 nM.
Compound `COc1cc2c(cc1Nc1ncc3ccc(NCc4ccc5c(c4)S(=O)(=O)N=C(C)N5)cc3n1)CN(C)CC2` [Compound 3-25, 7-[({2-[(6-methoxy-2-methyl-1,2,3,4-tetrahydroisoquinolin-7-yl)amino]quinazolin-7-yl}-amino)methyl]-3-methyl-1lambda~6~,2,4-benzothia-diazine-1,1(4H)-dione] has an IC50 of 46.8 nM.
`Cc1c(-c2cc3nc(Nc4cnc5c(c4)CN(C)CC5)ncc3c(N)c2F)cnc2c1NCCO2` [Compound 2-183, 6-fluoro-7-(8-methyl-2,3-dihydro-1H-pyrido[2,3-b][1,4]oxazin-7-yl)-N~2~- (6-methyl-5,6,7,8-tetrahydro-1,6-naphthyridin-3-yl)quinazoline-2,5-diamine] gave an IC50 of 0.0379 nM.
Work on `COc1cc2c(cc1Nc1ncc3ccc(-c4cc(C#N)ccc4OC)cc3n1)CNCC2` [Compound 1-63, 4-methoxy-3-{2-[(6-methoxy-1,2,3,4-tetrahydroisoquinolin-7-yl)amino]quinazolin-7-yl}benzonitrile] yielded an IC50 of 45.7 nM.
Work on `COc1cc2c(cc1Nc1ncc3ccc(N4CCn5c(C)nnc5C4)cc3n1)CN(C)CC2` [Compound 3-57, N-(6-methoxy-2-methyl-1,2,3,4-tetrahydroisoquinolin-7-yl)-7-(3-methyl-5,6-dihydro[1,2,4]-triazolo[4,3-a]pyrazin-7(8H)-yl)quinazolin-2-amine] yielded an IC50 of 799 nM.
`Cc1c(-c2c(F)c(N)c3cnc(Nc4ccc(CS(C)(=O)=O)cc4)nc3c2Cl)cnc2c1NCCO2` [Compound 2-92, (+ or −)-8-chloro-6-fluoro-7-(8-methyl-2,3-dihydro-1H-pyrido[2,3-b[1,4]oxazin-7-yl)-N~2~- {4-[(methylsulfonyl)methyl]phenyl}quinazoline-2,5-diamine] gave an IC50 of 0.0399 nM.

Source: US20230399341A1, “7-PHENYL SUBSTITUTED 2-AMINOQUINAZOLINE INHIBITORS OF HPK1” (MERCK SHARP & DOHME LLC, priority 2020, published 2023)
